In ChEMBL document CHEMBL5728679, “Imidazopyridinyl compounds and use thereof for treatment of neurodegenerative disorders” (2021):

Molecular target: Tyrosine-protein kinase ABL1 (Homo sapiens, UniProt P00519)
Test: Kinase Assay: c-abl: ADP-Glo assay kit was purchased from Promega. Magnesium chloride (MgCl2), bovine serum albumin (BSA), ethylene glycol-bis(p-aminoethyl ether)-N,N,N′,N′-tetraacetic acid (EGTA), triton X-100, 1,4-dithiothreitol (DTT) and dimethyl sulfoxide (DMSO) were purchased from Sigma-Aldrich. HEPES buffer was purchased from Gibco. ABL1 kinase and Abltide were purchased from Signalchem.c-Abl kinase activity was measured by Promega's ADP-Glo™ Assay. In this assay, His-tagged recombinant human ABL1 (0.25 ng/μl) is incubated with 5 μL of compounds (0.5% DMSO), 5 μL of Abltide (0.01 μg/μl) and 5 μL of ATP (25 μM) in buffer (50 mM HEPES, 7.5; 10 mM MgCl2; 1 mM EGTA; 0.05% BSA; 0.01% Triton X-100; 2 mM DTT). The assay was started by incubating the reaction mixture in a 96-well plate at 30° C. for 30-min. After the incubation, 25 μL ADP-Glo reagent was added and the reaction was incubated at room temperature for 40-min to stop the reaction and degrade residual ATP. The ADP product was then converted to ATP by adding 50 μL per well of detection reagent. Luminescence was detected after 30-min room temperature incubation with the Molecular device I3X plate reader. The IC50 values were calculated from a series of percent inhibition values determined at a range of inhibitor concentration using software routines as implemented in the GraphPad Prism 7 software and Sigma Plot 13.0.

Chain of Tyrosine-protein kinase ABL1 (P00519 whole entry): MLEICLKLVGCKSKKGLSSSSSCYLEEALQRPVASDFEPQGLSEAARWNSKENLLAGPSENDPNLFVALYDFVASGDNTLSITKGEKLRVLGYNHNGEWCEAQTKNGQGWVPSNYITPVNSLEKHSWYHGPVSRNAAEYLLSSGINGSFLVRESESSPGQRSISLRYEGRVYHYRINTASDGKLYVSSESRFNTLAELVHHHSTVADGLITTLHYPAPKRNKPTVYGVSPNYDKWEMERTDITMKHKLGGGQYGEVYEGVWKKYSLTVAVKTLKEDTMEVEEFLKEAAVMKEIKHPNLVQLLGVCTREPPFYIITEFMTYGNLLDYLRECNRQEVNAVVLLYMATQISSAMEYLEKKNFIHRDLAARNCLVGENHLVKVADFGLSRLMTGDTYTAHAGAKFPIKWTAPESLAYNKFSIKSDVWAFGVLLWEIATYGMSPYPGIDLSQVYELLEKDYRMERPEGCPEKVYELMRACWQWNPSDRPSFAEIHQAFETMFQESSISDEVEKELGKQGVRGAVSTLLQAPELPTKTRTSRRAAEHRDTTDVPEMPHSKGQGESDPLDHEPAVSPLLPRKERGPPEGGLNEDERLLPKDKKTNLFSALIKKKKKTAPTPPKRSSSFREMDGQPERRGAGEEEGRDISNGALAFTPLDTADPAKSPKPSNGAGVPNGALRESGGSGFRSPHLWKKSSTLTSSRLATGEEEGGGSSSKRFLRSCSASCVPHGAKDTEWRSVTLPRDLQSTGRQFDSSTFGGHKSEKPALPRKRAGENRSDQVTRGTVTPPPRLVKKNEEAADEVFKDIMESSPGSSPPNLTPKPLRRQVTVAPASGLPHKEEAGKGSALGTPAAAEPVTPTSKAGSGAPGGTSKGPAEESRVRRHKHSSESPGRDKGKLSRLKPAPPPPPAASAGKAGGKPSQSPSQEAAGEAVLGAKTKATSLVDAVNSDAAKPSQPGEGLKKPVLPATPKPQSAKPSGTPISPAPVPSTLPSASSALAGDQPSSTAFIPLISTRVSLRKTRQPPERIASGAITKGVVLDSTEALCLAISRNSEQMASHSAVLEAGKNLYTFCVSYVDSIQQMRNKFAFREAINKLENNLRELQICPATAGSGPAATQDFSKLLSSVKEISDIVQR

IC50, < 10 nM:
Cc1cccc(C)c1-c1ccc2nc(NC(=O)[C@@H]3C[C@@H]3F)cn2c1
COc1ccncc1-c1ccc2nc(NC(=O)[C@@H]3C[C@@H]3F)cn2c1
Cc1c(F)cccc1-c1ccc2nc(NC(=O)C3CC3(F)F)cn2c1 (centres undefined)
Cc1cc2scnc2cc1-c1ccc2nc(NC(=O)[C@@H]3C[C@@H]3F)cn2c1
